The values that follow come from PubChem BioAssay (NCI).

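How tested: cells in 96-well plates exposed to compound for 48 hours at five concentrations. TGI is the concentration that stops growth completely.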

In one test the test system is 786-0 renal. The experiment in a line: NCI tumour cell line growth inhibition, 48 h.
For `O=C(c1cccs1)N(C(=S)N1CCN(c2ccccn2)CC1)c1ccccc1`, the TGI is greater than 100 µM.
Compound `CNS(=O)(=O)NN(C)S(=O)(=O)c1ccccc1` gave a TGI greater than 100 µM.
Take `CC(=O)OCC1=C(CCC#N)N2C(=O)C(NC(=O)Cc3cccs3)C2S(=O)C1` (stereo not drawn): the TGI is greater than 100 µM.
The compound `CCCCNc1nc(C#N)c(N)s1` displayed a TGI greater than 100 µM.
In turn, `Cn1cc2ccccc2c1-c1nc(F)nc(F)n1` had a TGI greater than 100 µM.
Take `COC(=O)N/N=C(\Cc1ccccc1)CN(C)C`: the TGI is greater than 100 µM.
Regarding `COc1ccc2c3c1O[C@]1(C)C34CCN(C)C(C2)C42C=C[C@@]1(OC)c1c(O)ccc(O)c12`, the TGI is greater than 100 µM.
Same read-out and setting: to `C[N+](C)(C)CC(=O)N/N=C/c1oc(-c2c(O)ccc3ccccc23)c(-c2c(O)ccc3ccccc23)c1[N+](=O)[O-]` belongs 44.3 µM; to `C/C(CC(=O)Nc1ccc([N+](=O)[O-])cc1)=N\NC(N)=O`, greater than 100 µM.
`CCCCOC(=O)C1C2CCC(O2)C1C(=O)OCCCC` (stereo not drawn) gave a TGI greater than 60.9 µM.
With `O=C(CSc1nnc(-c2ccc(N=Cc3ccc(Cl)cc3)cc2)o1)Nc1ccccc1[N+](=O)[O-]`, the TGI was greater than 100 µM.

Another test deals with KM12 colon. The experiment in a line: NCI tumour cell line growth inhibition, 48 h.
The compound `O=c1[nH]c2cc([N+](=O)[O-])ccc2nc1/C(=N/Nc1ccccc1)C(O)c1ccccc1Cl` (stereo not drawn) returned a TGI greater than 100 µM.
Still for that read-out and setting: to `C=Cc1ccc(C)[n+](C[Si](C)(C)O[Si](C)(C)C)c1` belongs greater than 100 µM; to `C[C@]12CCC(=O)C=C1CC[C@@H]1[C@@H]2CC[C@]2(C)C(=O)NC(=O)C[C@@H]12`, greater than 100 µM; to `COc1cc2c(oc(=O)c3c4oc([Si](C)(C)C)cc4cc(OC)c23)c2cccc(OCc3ccccc3)c12`, greater than 100 µM.
`O=C(c1cccs1)N(C(=S)N1CCN(c2ccccn2)CC1)c1ccccc1`: the TGI is greater than 100 µM.
Same read-out and setting: the same measure for `CNS(=O)(=O)NN(C)S(=O)(=O)c1ccccc1`: greater than 100 µM; for `CC(=O)OCC1=C(CCC#N)N2C(=O)C(NC(=O)Cc3cccs3)C2S(=O)C1` (stereo not drawn): greater than 100 µM; for `CCCCNc1nc(C#N)c(N)s1`: greater than 100 µM.
On to `Cn1cc2ccccc2c1-c1nc(F)nc(F)n1`, for which the TGI is greater than 100 µM.
The same measure, in the same setting: the same measure for `COC(=O)N/N=C(\Cc1ccccc1)CN(C)C`: greater than 100 µM; for `COc1ccc2c3c1O[C@]1(C)C34CCN(C)C(C2)C42C=C[C@@]1(OC)c1c(O)ccc(O)c12`: greater than 100 µM; for `C[N+](C)(C)CC(=O)N/N=C/c1oc(-c2c(O)ccc3ccccc23)c(-c2c(O)ccc3ccccc23)c1[N+](=O)[O-]`: 38.9 µM.
`C/C(CC(=O)Nc1ccc([N+](=O)[O-])cc1)=N\NC(N)=O` showed a TGI greater than 100 µM.
Turning to `CCCCOC(=O)C1C2CCC(O2)C1C(=O)OCCCC` (stereo not drawn), the TGI is greater than 100 µM.
The compound `O=C(CSc1nnc(-c2ccc(N=Cc3ccc(Cl)cc3)cc2)o1)Nc1ccccc1[N+](=O)[O-]` registered a TGI greater than 100 µM.

A further test concerns NCI-H226 lung. The experiment in a line: NCI tumour cell line growth inhibition, 48 h.
As to `O=c1[nH]c2cc([N+](=O)[O-])ccc2nc1/C(=N/Nc1ccccc1)C(O)c1ccccc1Cl` (stereo not drawn), the TGI is greater than 100 µM.
Compound `C=Cc1ccc(C)[n+](C[Si](C)(C)O[Si](C)(C)C)c1` displayed a TGI greater than 100 µM.
`C[C@]12CCC(=O)C=C1CC[C@@H]1[C@@H]2CC[C@]2(C)C(=O)NC(=O)C[C@@H]12` had a TGI greater than 100 µM.
Consider `COc1cc2c(oc(=O)c3c4oc([Si](C)(C)C)cc4cc(OC)c23)c2cccc(OCc3ccccc3)c12`, for which the TGI was greater than 94.4 µM.
Same read-out and setting: the same measure for `O=C(c1cccs1)N(C(=S)N1CCN(c2ccccn2)CC1)c1ccccc1`: 84.4 µM; for `CNS(=O)(=O)NN(C)S(=O)(=O)c1ccccc1`: greater than 100 µM; for `CC(=O)OCC1=C(CCC#N)N2C(=O)C(NC(=O)Cc3cccs3)C2S(=O)C1` (stereo not drawn): greater than 100 µM.
In the case of `CCCCNc1nc(C#N)c(N)s1`, the TGI was greater than 100 µM.
On to `Cn1cc2ccccc2c1-c1nc(F)nc(F)n1`, for which the TGI is greater than 100 µM.
With `C[N+](C)(C)CC(=O)N/N=C/c1oc(-c2c(O)ccc3ccccc23)c(-c2c(O)ccc3ccccc23)c1[N+](=O)[O-]`, the TGI stood at 36.3 µM.
The compound `C/C(CC(=O)Nc1ccc([N+](=O)[O-])cc1)=N\NC(N)=O` registered a TGI greater than 100 µM.
`CCCCOC(=O)C1C2CCC(O2)C1C(=O)OCCCC` (stereo not drawn) yielded a TGI greater than 100 µM.
Compound `O=C(CSc1nnc(-c2ccc(N=Cc3ccc(Cl)cc3)cc2)o1)Nc1ccccc1[N+](=O)[O-]` registered a TGI greater than 100 µM.

Another test has as its system SK-OV-3 ovarian. The experiment in a line: NCI tumour cell line growth inhibition, 48 h.
`O=c1[nH]c2cc([N+](=O)[O-])ccc2nc1/C(=N/Nc1ccccc1)C(O)c1ccccc1Cl` (stereo not drawn) came in with a TGI greater than 100 µM.
The same measure, in the same setting: the same measure for `C=Cc1ccc(C)[n+](C[Si](C)(C)O[Si](C)(C)C)c1`: greater than 100 µM; for `C[C@]12CCC(=O)C=C1CC[C@@H]1[C@@H]2CC[C@]2(C)C(=O)NC(=O)C[C@@H]12`: greater than 100 µM.
Compound `COc1cc2c(oc(=O)c3c4oc([Si](C)(C)C)cc4cc(OC)c23)c2cccc(OCc3ccccc3)c12` registered a TGI greater than 73.2 µM.
For the compound `O=C(c1cccs1)N(C(=S)N1CCN(c2ccccn2)CC1)c1ccccc1`, the TGI was greater than 100 µM.
The compound `CC(=O)OCC1=C(CCC#N)N2C(=O)C(NC(=O)Cc3cccs3)C2S(=O)C1` (stereo not drawn) came in with a TGI greater than 100 µM.
`CCCCNc1nc(C#N)c(N)s1`: the TGI was greater than 100 µM.
In turn, `Cn1cc2ccccc2c1-c1nc(F)nc(F)n1` gave a TGI greater than 100 µM.
On the same count and under the same terms, the same measure for `COC(=O)N/N=C(\Cc1ccccc1)CN(C)C`: greater than 100 µM; for `COc1ccc2c3c1O[C@]1(C)C34CCN(C)C(C2)C42C=C[C@@]1(OC)c1c(O)ccc(O)c12`: greater than 100 µM.
`C[N+](C)(C)CC(=O)N/N=C/c1oc(-c2c(O)ccc3ccccc23)c(-c2c(O)ccc3ccccc23)c1[N+](=O)[O-]` showed a TGI of 36.3 µM.
Same read-out and setting: to `C/C(CC(=O)Nc1ccc([N+](=O)[O-])cc1)=N\NC(N)=O` belongs greater than 100 µM; to `CCCCOC(=O)C1C2CCC(O2)C1C(=O)OCCCC` (stereo not drawn), greater than 100 µM.
As for `O=C(CSc1nnc(-c2ccc(N=Cc3ccc(Cl)cc3)cc2)o1)Nc1ccccc1[N+](=O)[O-]`, the TGI was greater than 100 µM.
